According to ChEMBL document CHEMBL1201862, “PubChem BioAssay data set” (2004):
Active and inactive are the calls of the source.

Experiments:
[1] = molecular target: CAAX prenyl protease 2 (Saccharomyces cerevisiae S288c, UniProt Q03530); assay type: biochemical
[2] = molecular target: CAAX prenyl protease 1 (Saccharomyces cerevisiae S288c, UniProt P47154); test: Ste24 protease inhibitors, dose response, biochemical, S. cerevisiae, plate reader, cherry-pick (AID 488815)
[3] = molecular target: Paired box protein Pax-8 (Homo sapiens, UniProt Q06710); test: inhibitors of PAX8-driven TPO luciferase reporter, dose response, RMG-I cells, cherry-pick (AID 687027); assay type: functional, cell-based;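 also: luciferase reporter driven by Pax8 target thyroperoxidase promoter measured by SteadyGlo luminescence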
[4] = Vero E6 cell cytotoxicity, dose response, cytotoxicity control for non-replicating M. tuberculosis project, secondary assay (AID 492998); assay type: functional, VeroE6; details: Vero C1008
[5] = molecular target: T1, Exodeoxyribonuclease V (Escherichia coli (strain K12), UniProt P04993+P07648+P08394); test: E. coli RecBCD inhibitors, dose response, counter-screen for AddAB inhibitor project, absorbance, V66 E. coli, mutant T4 phage (AID 492957); assay type: functional, cell-based, Escherichia coli str. K-12 substr. MG1655
T1 sequence (P04993 whole entry): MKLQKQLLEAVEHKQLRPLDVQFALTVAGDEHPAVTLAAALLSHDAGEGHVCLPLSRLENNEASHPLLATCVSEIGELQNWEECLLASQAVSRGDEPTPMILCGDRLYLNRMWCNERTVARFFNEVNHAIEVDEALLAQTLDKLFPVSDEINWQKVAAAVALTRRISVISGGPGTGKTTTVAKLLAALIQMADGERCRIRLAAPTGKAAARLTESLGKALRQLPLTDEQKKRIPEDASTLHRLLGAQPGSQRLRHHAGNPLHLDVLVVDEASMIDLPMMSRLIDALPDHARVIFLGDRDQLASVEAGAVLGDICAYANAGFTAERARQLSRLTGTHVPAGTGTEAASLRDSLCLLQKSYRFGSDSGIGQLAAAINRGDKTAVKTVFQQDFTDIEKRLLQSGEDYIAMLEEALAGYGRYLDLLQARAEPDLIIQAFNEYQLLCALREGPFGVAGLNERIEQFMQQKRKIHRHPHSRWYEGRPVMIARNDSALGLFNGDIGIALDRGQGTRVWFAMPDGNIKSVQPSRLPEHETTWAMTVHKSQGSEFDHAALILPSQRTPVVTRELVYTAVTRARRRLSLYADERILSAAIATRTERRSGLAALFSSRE
T1 sequence (P07648 whole entry): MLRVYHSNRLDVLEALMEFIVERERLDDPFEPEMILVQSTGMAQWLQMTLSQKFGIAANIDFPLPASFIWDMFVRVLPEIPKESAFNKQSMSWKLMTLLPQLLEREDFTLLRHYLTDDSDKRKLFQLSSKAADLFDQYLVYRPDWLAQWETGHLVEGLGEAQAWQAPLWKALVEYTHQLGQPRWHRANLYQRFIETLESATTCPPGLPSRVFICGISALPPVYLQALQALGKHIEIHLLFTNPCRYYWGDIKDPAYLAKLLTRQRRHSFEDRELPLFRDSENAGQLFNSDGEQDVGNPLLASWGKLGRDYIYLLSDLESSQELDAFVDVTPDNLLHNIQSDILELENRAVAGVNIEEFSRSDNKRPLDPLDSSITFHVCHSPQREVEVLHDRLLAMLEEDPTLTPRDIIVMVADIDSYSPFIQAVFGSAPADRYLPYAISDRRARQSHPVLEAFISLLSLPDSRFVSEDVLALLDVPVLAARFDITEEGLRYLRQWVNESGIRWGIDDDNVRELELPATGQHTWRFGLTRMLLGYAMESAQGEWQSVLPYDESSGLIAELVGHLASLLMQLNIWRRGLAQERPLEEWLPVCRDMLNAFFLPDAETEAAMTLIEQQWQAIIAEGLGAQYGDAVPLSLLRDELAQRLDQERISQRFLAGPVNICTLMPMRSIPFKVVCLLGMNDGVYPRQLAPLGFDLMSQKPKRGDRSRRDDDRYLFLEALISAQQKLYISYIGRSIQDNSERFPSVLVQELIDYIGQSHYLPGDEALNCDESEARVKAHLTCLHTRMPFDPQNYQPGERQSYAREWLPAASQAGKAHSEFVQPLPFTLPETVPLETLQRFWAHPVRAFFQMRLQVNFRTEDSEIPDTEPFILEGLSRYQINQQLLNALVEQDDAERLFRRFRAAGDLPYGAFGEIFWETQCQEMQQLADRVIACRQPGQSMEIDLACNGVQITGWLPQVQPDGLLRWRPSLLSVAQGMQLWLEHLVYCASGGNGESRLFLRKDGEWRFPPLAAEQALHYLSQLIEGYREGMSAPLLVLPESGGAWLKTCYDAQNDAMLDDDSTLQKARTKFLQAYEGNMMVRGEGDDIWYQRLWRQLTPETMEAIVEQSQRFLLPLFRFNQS
T1 sequence (P08394 whole entry): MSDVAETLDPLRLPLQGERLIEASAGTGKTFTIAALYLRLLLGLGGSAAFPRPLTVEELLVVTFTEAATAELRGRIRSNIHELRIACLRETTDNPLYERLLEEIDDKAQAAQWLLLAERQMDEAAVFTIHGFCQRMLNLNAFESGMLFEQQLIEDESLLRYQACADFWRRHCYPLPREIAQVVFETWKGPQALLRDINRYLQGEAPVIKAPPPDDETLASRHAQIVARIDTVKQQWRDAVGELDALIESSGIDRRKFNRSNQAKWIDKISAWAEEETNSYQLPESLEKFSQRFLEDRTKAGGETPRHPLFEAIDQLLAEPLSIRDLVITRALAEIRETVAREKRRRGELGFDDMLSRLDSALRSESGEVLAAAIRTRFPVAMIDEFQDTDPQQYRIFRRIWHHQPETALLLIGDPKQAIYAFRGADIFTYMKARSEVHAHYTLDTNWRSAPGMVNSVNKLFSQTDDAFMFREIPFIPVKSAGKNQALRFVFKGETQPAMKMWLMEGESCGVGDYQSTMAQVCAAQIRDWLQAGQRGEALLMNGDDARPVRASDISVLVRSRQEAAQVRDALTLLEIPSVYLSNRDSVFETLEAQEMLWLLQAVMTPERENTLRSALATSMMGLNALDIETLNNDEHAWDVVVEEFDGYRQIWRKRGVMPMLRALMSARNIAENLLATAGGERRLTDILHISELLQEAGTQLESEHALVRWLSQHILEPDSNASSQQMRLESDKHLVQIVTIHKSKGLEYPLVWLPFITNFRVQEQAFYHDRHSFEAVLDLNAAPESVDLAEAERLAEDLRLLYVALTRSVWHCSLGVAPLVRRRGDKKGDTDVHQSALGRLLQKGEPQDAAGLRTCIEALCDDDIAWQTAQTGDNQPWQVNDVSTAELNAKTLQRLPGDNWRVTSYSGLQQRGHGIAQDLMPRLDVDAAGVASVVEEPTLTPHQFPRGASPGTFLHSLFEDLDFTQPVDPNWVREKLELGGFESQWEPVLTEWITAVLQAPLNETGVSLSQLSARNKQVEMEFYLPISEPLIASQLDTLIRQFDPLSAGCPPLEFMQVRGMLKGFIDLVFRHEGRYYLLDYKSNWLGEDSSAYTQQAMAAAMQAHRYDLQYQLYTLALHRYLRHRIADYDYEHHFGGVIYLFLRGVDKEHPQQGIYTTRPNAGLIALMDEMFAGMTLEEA

[6] = HepG2 cell cytotoxicity, dose response, cytotoxicity control for non-replicating M. tuberculosis project (AID 489018); assay type: functional; details: Mycobacterium tuberculosis
[7] = THP-1 cell cytotoxicity, dose response, cytotoxicity control for non-replicating M. tuberculosis project (AID 489025); assay type: functional
[8] = molecular target: T2, Microphthalmia-associated transcription factor (Homo sapiens, UniProt O75030); test: TRPM1 promoter luciferase signal decrease, dose response, MITF inhibitor project, cell-based, SK-MEL-5, cherry-picked, set 3 (AID 493073); assay type: functional
T2 sequence (O75030 whole entry): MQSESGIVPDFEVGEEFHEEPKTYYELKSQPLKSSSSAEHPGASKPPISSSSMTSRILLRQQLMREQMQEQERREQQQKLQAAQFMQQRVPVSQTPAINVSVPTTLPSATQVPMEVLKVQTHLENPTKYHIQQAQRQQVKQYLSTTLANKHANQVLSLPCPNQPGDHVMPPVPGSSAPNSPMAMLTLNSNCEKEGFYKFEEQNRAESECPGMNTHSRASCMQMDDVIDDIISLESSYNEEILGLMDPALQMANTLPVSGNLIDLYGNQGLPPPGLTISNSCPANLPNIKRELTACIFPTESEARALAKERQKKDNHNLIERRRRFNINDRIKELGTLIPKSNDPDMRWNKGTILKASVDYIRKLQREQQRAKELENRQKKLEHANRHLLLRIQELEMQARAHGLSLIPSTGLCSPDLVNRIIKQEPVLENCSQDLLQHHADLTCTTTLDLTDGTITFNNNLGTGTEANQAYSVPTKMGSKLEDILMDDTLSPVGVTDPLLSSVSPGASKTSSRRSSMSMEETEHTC

[9] = cells; assay type: functional
[10] = Counterscreen for AddAB inhibitors: absorbance-based bacterial cell-based high throughput dose response assay for inhibitors of bacterial viability. [Related pubchem assays (depositor defined):AID435030, AID449728, AID449731, AID488942, AID488955, AID488956]; assay type: functional
[11] = molecular target: G-protein coupled receptor 55 (Homo sapiens, UniProt Q9Y2T6); test: GPR55 antagonists blocking LPI-driven arrestin recruitment, primary screen, imaging, U2OS, beta-arrestin-GFP, LPI agonist (AID 2013); assay type: functional;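 also: antagonist potency measured as reduced agonist-driven arrestin aggregation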
[12] = cytotoxicity toward NIH3T3 fibroblasts, dose response, counter-screen, cell-based, ATP luminescence, mouse fibroblasts (AID 2010); assay type: functional;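 also: cells exposed to compound for about 90 hours before reading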
[13] = inhibitors of intracellular T. cruzi replication, confirmation, NIH3T3 host cells, beta-gal luminescence (AID 2044); assay type: functional, cell-based;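 also: intracellular parasites grown in NIH/3T3 mouse fibroblasts as host cells; luminescent beta-galactosidase reporter signal from transgenic T. cruzi replicating inside host cells; inhibitors lower the luminescence signal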
[14] = molecular target: Glyceraldehyde-3-phosphate dehydrogenase (Homo sapiens, UniProt P04406)
[15] = molecular target: T3, Alkaline phosphatase, tissue-nonspecific isozyme (Homo sapiens, UniProt P05186); test: human TNAP enzyme inhibitors, SAR follow-up, biochemical, luminescent, dose response (AID 1056)
T3 sequence (P05186 whole entry): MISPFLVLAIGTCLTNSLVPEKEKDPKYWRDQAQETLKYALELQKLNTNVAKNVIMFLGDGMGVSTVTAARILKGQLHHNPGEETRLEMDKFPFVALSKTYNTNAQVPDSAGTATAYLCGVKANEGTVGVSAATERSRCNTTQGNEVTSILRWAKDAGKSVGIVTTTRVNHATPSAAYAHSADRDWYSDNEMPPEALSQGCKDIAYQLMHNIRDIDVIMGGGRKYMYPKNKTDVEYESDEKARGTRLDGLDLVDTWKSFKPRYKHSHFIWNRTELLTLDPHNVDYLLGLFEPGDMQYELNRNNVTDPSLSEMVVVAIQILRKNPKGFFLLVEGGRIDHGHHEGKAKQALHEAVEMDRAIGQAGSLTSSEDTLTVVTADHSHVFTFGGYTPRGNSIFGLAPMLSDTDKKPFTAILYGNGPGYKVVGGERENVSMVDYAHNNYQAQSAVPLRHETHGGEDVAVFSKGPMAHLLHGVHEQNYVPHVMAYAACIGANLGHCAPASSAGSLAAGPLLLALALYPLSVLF

[16] = molecular target: Alkaline phosphatase, placental type (Homo sapiens, UniProt P05187); test: PLAP enzyme inhibitors, confirmation, biochemical, luminescence (AID 1512); assay type: functional
[17] = molecular target: Kappa-type opioid receptor (Homo sapiens, UniProt P41145); test: SAR analysis of small molecule agonists of the kappa opioid receptor via a luminescent beta-arrestin assay - Set 3. [Related pubchem assays (depositor defined):AID1777, AID1785, AID1786, AID1966, AID2133, AID2136, AID2284, AID2500]; assay type: functional
[18] = molecular target: Troponin, cardiac muscle (Homo sapiens, UniProt P19429+P45379+P63316); test: Fluorescence-based biochemical high throughput dose response assay for activators of the calcium sensitivity of cardiac Regulated Thin Filaments (RTF). [Related pubchem assays (depositor defined):AID493008, AID493018, AID504382, AID504383]; assay type: protein-complex assay

Sequence of Alkaline phosphatase, placental type (P05187 whole entry): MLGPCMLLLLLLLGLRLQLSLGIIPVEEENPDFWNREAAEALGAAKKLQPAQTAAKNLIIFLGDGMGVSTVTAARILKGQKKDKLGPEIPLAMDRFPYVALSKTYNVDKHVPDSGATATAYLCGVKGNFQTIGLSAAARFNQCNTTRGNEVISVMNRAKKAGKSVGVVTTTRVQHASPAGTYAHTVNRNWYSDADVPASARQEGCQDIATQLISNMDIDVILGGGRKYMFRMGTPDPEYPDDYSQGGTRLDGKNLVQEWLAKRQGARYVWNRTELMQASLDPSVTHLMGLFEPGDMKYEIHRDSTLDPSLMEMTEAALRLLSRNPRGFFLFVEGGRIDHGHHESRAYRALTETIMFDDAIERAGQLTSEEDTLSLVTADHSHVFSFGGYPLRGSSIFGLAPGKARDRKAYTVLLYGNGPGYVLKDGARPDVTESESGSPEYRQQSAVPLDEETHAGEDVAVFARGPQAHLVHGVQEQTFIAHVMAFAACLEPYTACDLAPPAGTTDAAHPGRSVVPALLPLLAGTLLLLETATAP
Sequence of Kappa-type opioid receptor (P41145 whole entry): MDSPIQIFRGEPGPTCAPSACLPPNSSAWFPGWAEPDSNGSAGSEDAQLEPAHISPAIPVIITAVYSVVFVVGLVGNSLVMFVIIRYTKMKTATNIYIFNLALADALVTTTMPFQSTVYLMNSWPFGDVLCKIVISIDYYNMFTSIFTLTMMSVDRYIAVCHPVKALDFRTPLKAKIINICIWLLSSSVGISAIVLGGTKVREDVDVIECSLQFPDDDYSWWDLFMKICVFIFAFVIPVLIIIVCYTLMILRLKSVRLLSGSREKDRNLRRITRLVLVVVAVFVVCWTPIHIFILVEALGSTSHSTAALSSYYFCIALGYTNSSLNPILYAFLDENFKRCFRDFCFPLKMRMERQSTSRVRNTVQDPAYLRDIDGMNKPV
Sequence of G-protein coupled receptor 55 (Q9Y2T6 whole entry): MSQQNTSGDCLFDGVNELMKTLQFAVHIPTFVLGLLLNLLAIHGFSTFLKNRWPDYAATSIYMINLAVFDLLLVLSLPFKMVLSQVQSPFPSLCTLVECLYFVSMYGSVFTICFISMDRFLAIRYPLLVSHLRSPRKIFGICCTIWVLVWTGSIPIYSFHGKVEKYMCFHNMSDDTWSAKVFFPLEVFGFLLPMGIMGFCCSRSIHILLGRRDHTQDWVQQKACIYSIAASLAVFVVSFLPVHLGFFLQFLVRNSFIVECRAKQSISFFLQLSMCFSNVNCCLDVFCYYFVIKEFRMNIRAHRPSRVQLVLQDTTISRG
Sequence of CAAX prenyl protease 1 (P47154 whole entry): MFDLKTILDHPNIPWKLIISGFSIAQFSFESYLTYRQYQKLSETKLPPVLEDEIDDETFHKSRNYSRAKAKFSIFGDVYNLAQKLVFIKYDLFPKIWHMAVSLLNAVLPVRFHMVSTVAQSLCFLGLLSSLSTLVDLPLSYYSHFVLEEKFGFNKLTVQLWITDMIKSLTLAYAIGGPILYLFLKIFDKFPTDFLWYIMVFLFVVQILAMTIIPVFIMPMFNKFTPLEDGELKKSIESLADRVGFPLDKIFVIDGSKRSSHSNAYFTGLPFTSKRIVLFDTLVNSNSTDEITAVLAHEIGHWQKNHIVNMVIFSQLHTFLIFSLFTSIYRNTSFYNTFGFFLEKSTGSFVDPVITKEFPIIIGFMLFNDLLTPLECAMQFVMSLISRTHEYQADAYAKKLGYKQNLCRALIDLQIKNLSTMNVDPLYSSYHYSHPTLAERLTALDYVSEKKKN
Sequence of CAAX prenyl protease 2 (Q03530 whole entry): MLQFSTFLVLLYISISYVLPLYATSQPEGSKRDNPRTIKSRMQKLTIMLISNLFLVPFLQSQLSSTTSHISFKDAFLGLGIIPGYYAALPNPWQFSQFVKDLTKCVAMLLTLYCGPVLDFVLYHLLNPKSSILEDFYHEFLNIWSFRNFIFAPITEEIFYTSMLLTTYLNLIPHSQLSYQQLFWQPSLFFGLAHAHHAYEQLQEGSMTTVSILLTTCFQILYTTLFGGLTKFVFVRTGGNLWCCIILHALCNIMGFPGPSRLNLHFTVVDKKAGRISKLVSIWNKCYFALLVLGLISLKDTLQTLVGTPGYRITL
Sequence of Paired box protein Pax-8 (Q06710 whole entry): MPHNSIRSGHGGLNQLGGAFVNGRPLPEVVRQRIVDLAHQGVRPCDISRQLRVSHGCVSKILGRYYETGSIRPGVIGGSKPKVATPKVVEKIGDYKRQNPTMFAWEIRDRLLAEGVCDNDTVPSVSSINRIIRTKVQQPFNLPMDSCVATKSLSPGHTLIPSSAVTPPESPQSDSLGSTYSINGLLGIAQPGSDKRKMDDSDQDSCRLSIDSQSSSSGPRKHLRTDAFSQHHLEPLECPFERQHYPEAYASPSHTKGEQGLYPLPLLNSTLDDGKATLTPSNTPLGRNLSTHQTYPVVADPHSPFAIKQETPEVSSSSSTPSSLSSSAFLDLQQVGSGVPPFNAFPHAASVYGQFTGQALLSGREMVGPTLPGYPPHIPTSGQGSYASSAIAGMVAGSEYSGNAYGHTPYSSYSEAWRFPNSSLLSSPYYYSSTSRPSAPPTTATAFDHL
Sequence of Glyceraldehyde-3-phosphate dehydrogenase (P04406 whole entry): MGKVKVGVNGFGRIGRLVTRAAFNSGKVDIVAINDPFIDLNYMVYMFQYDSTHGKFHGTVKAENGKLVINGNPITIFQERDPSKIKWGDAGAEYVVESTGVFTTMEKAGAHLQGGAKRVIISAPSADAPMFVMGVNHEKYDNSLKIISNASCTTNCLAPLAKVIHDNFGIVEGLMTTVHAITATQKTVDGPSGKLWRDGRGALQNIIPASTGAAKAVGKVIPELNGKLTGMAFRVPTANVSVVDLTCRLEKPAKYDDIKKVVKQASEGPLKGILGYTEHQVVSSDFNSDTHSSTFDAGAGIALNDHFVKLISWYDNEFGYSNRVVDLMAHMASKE

## CN(C)C(=O)COc1ccc2ccc(=O)oc2c1
[1]
  AC50: 41.5 µM (active)
[2]
  AC50: 6.76 µM (active)

## CC(C)C(=O)N1CCN(c2ccc(NC(=O)c3ccc([N+](=O)[O-])o3)cc2)CC1
[3]
  AC50: 4.48 µM (active)
[4]
  CC50: 3.34 µM (active)
[5]
  IC50: > 119 µM (inactive)
[6]
  CC50: 9.53 µM (active)
[7]
  CC50: 5.52 µM (active)
[8]
  AC50: 7.98 µM (active)
[9]
  IC50: 0.54 µM (active)
[10]
  IC50: > 119 µM (inactive)

## Cn1cccc1/C=C1\C(=O)NC(=O)N(Cc2ccccc2Cl)C1=O
[11]
  IC50: 0.978 µM (active)

## CCn1nnc(NC(=O)c2ccc([N+](=O)[O-])o2)n1
[12]
  EC50: > 60 µM (inconclusive)
[4]
  CC50: 4.8 µM (active)
[5]
  IC50: > 118 µM (inactive)
[6]
  CC50: > 20 µM (active)
[7]
  CC50: 38.5 µM (active)
[10]
  IC50: 61.7 µM (inactive)
[13]
  EC50: 0.179 µM (active)

## Nc1nc(Cc2ccc3ccccc3c2)n(-c2ccccc2)n1
[14]
  IC50: > 100 µM (not active)
[15]
  IC50: > 100 µM (inactive)
[16]
  IC50: > 100 µM (inactive)

## Cc1cc(NCC(=O)c2ccc(O)c(O)c2)[nH]n1
[15]
  IC50: 18.3 µM (active)
[16]
  IC50: 5.71 µM (active)

## Clc1ccccc1Cn1c(SCc2ccc(Br)cc2)nnc1-c1ccccn1
[17]
  EC50: 14.2 µM (inactive)

## CC1(C)CC(=O)C(/C=N/c2cc(C(=O)c3ccccc3)ccc2N)=C(O)C1
[18]
  EC50: 20.4 µM (inactive)

## CCCNC(=O)Cn1c(=O)/c(=C\c2ccc(-c3ccc([N+](=O)[O-])cc3)o2)s/c1=C\C(=O)C(C)(C)C
[18]
  EC50: 0.165 µM (active)
